The subject of data set [1] is STZ-induced diabetic neuropathy model rat. The data set can be described thus: STZ-induced diabetic neuropathy model rat, von Frey up-down stimulation method, 50% escape response threshold. The class given is in vivo. The following applies: oral, compared with STZ control group. On the procedure: As one embodiment, the study was performed by administering the compound of the present invention to an STZ-induced diabetic neuropathy model rat, then giving a stimulus thereto by an up-down stimulation method, and calculating a 50% escape response threshold.
A model was prepared by intravenously administering STZ as a diabetes-inducing substance to a rat. In a test, an animal that had developed diabetic neuropathy 35 days after STZ administration was used.
On the day before administration of STZ and the day before administration of a test substance, about 100 μL of blood was collected from the tail vein using a winged injection needle equipped with a heparin-treated capillary. The obtained blood was centrifuged with a centrifuge [centrifugation conditions: 4° C., 3,000 rpm (×2,150 g), 15 min], and then plasma was obtained. The blood glucose level of the obtained plasma was measured using a hexokinase G-6-PDH method using an automatic biochemical analyzer. Note that the amount of the obtained plasma was very small, and therefore the measurement was performed by diluting the plasma 5 times with physiological saline. […]
35 days after administration of STZ, before administration, a 50% escape response threshold was measured, and the animals were divided into groups each including two animals such that the groups had the same average of escape response thresholds and the same average of body weights (severity of 50% escape response threshold: 8, severity of weight: 2). […]
Pain was evaluated during a pre-breeding period, and 35 days after administration of STZ, before administration of a test substance and one, two, four, and six hours after administration of the test substance. […] From the result, a 50% escape response threshold was calculated by the following method for calculating a 50% escape response threshold (the 50% escape response threshold was rounded off to two decimal places). […]

Data set [2] has as its system rats (SD, male). In words: Rota-rod test, effect on motor coordination. It counts as in vivo, rat. The following applies: 60 mg/kg oral once, three hours after administration; for walking duration (time to fall from the rod): 10 rpm, cut-off 120 seconds. On the procedure: As an index for studying a central inhibitory effect and a muscle relaxation effect, an effect on motor coordination was studied using a Rota-rod test.
In each of the groups, the number of samples was 8. Before a test, a rotation speed was set to 10 rpm using a mark on a rotating disk of Rota-rod (47700, UGO BASILE S.R.L.). A rat was gently placed on the rotating rod, and it was confirmed that the rat was placed on the rod stably. Thereafter, time (seconds) for the rat to fall from the rod was recorded. A cut-off value was 120 seconds. Trials were performed before administration of a test substance and three hours after the administration. At each measurement time, trials were performed up to three times. In a case where the cut-off value was reached, 120 seconds was taken as a walking duration at the time. In a case where the cut-off value was not reached in all three trials, an average of the three values was taken as a walking duration at the time.
(In the rotarod test animals must keep their balance on a rotating rod.)

The structures appear in SMILES notation.

The text below walks through data of patent US12090158B2, “Medicine for diabetic peripheral neuropathy” (NIPPON CHEMIPHAR CO., LTD., priority 2018, dated 2024).

`O=C1CC(=O)N(c2ccc(NC(=O)c3ccccc3I)cc2)c2ccc3ccccc3c2N1` [Example 48 (Compound), 5-[4-(2-iodobenzoylamino)phenyl]-1H-naphtho [1,2-b] [1,4]diazepine-2,4 (3H,5H)-dione]: the “50% escape response threshold” value in data set [1] (3 mg/mL group, two hours and four hours after administration) is given as “significantly increased”; in data set [1] (10 mg/mL group, one hour to four hours after administration), “significantly increased”; in data set [1] (30 mg/mL group, one hour to four hours after administration), “significantly increased”. Also, in data set [2] (Rota-rod), the “effect on motor coordination” value is recorded as “no effect on motor coordination”. The “walking duration (time to fall from the rod)” value in data set [2] came to 120 s.
Turning to `CC(C)C[C@H](CN)CC(=O)O` [pregabalin, reference compound], the “walking duration (time to fall from the rod)” value in data set [2] amounted to 22 ± 5 s.
